Values quoted from earlier work as cited in patent US20030206884A1, “Embalming fluid” (AARD-BALM LIMITED, priority 2000, published 2003).

Test system: eyes, nose and throat

## C=O [formaldehyde]
  airborne concentration causing irritation of the eyes, nose and throat: above 0.1 ppm
  airborne concentration that is a danger to life and health: 100 ppm
